# Test results from US20100062992A1 (SuperGen, Inc., priority 2004, published 2010).
# Where a name gives a salt, the structure may show the parent alone.
# Tests used:
# [1] = Hygroscopicity, % weight gain in 1 week at 56% and 98% relative humidity; format: physicochemical; details: one week at 56% / 98% RH
# [2] = 0.05 M phosphate buffer, pH 7.0 and 2.5
structure (smiles),measurement,setting,value
"Nc1ncn([C@@H]2O[C@H](CO)C(O)C2O)c(=O)n1 (stereo partly shown) [Compound 19, azacitidine mesylate]",rate of dissolution compared with free base (in words),1.0 mg in water,less than the free azacitidine base
same,Dissolution In water (1.0 mg/mL),"time to dissolve, with Sonication",1 min
same,hygroscopicity compared with free base (in words),[1],more hydroscopic than free azacitidine
same,solution stability compared with free base (in words),[2],slightly less than the free azacitidine base
